From ChEMBL document CHEMBL5608109, “Hepatotoxicity screening of Donated Chemical Probes” (2024)

Tested on: Hepatocyte spheroids
Experiment: This assay model using primary human hepatocyte (PHH) spheroids, which are cultured in Williams E medium. After spheroid formation, cells are exposed to compounds in an FBS-free culture medium. […] Imaging is performed on an Opera Phenix High-Content Screening System, allowing quantification of proliferation as a readout for evaluating the effects of chemical probes on hepatocyte regeneration.
Assay type: functional
Details: read-out: Cell Viability; for viability at 1 µM: Concentration 1 uM; for viability at 10 µM: Concentration 10 uM; for viability at 0.1 µM: Concentration 0.1 uM

SMILES: CC(=O)Nc1c(C(C)=O)c(=O)n(C)c2nc(-c3ccc(Cl)cc3Cl)c(-c3ccc(Cl)cc3)cc12 [NAPHTHYRIDINONE]
- viability at 1 µM: 117% (non-toxic)
- viability at 10 µM: 121% (non-toxic)

SMILES: CO[C@@H](C)c1c(Nc2ccc([C@H](N(C)C(=O)C3CCS(=O)(=O)CC3)C(F)(F)F)cc2)cnc2cc(Cl)nn12 [NVS-MALT1]
- viability at 1 µM: 99.7% (non-toxic)
- viability at 10 µM: 33.9% (toxic)

SMILES: Nc1nc(NCc2ccccc2)nc(-c2ccccc2CO)n1 [Ogerin]
- viability at 1 µM: 94.3% (non-toxic)
- viability at 10 µM: 115% (non-toxic)

SMILES: COc1ccc2cc(OCC3(C(=O)O)CN(C(=O)c4ccc(F)cc4)C3)ccc2c1 [PF-04418948]
- viability at 0.1 µM: 157% (non-toxic)
- viability at 1 µM: 153% (toxic)

SMILES: C[C@H](c1ccc(F)cc1)N(Cc1cccc(C(=O)O)c1)C(=O)c1cnc2ccccc2c1 [PF-05105679]
- viability at 1 µM: 126% (non-toxic)
- viability at 10 µM: 120% (non-toxic)

SMILES: CS(=O)(=O)N1CCCC(NC(=O)[C@H](CCC2CCCCC2)NC(=O)c2ccc(CNC(=O)c3cnc4ccccn34)cc2)C1 (stereo partly specified) [SR-302]
- viability at 0.1 µM: 134% (non-toxic)
- viability at 1 µM: 128% (non-toxic)

SMILES: Nc1c(C(=O)NCc2ccc(C(=O)NCCCC3CCCCC3)cc2)cnn1-c1ccccc1 [SR-318]
- viability at 0.1 µM: 81.4% (non-toxic)
- viability at 1 µM: 89.8% (non-toxic)

SMILES: O=C1c2ccc(Nc3ccc(F)cc3F)cc2CCc2ccc(OC[C@H](O)CO)cc21 [Skepinone-L]
- viability at 1 µM: 94.6% (non-toxic)
- viability at 10 µM: 16.2% (toxic)

SMILES: CN1CCN(C(=O)C(C)(C)c2ccc(C(=O)Nc3cn4cc(-c5ccncc5)ccc4n3)cc2)CC1 [T3-CLK]
- viability at 1 µM: 109% (non-toxic)
- viability at 10 µM: 1.01% (toxic)

SMILES: COc1cccc(CNC(=O)c2nc3scc(COCc4ccc(C(=O)O)cc4)c3c(=O)[nH]2)c1 [T-26c]
- viability at 0.1 µM: 125% (non-toxic)
- viability at 1 µM: 99.4% (non-toxic)

SMILES: COCCOc1nc(-c2ccc(Cl)nc2)nc2c1CN(C(=O)c1ncn3ccccc13)CC2 [THPP-1]
- viability at 0.1 µM: 118% (non-toxic)
- viability at 1 µM: 116% (non-toxic)

SMILES: Cc1cnc(-c2cc(Cl)ccc2F)cc1-n1c(=O)n(CC(N)=O)c2cnccc21 [TP-008]
- viability at 1 µM: 90% (non-toxic)
- viability at 10 µM: 99.1% (non-toxic)

SMILES: Cn1nc(C(F)(F)F)cc1-c1cnc(N2CCc3cc(S(=O)(=O)Nc4c(F)cc(Cl)cc4F)cc(N4CCCC4=O)c32)nc1 [TP-020]
- viability at 1 µM: 121% (non-toxic)
- viability at 10 µM: 120% (non-toxic)

SMILES: Cc1cc(-n2nc(Cc3cc(F)cc(C(F)(F)F)c3)nc2C)ccc1C(N)=O [TP-024]
- viability at 1 µM: 111% (non-toxic)
- viability at 10 µM: 92% (non-toxic)

SMILES: CN1C(=O)[C@@H](N2CCc3c(nn(Cc4ccccc4)c3Br)C2=O)COc2ccccc21 [TP-030-2]
- viability at 0.1 µM: 69.5% (toxic)
- viability at 1 µM: 56.7% (toxic)

SMILES: CC1CCN(c2ccnc(NCc3cn(C)cn3)n2)CC1 [TP-040]
- viability at 1 µM: 127% (non-toxic)
- viability at 10 µM: 133% (non-toxic)

SMILES: Cc1ccc2nc(CNCCCOc3ccccc3)cc(O)c2c1 [UCSF924]
- viability at 1 µM: 164% (non-toxic)
- viability at 10 µM: 147% (non-toxic)

SMILES: O=C(NNS(=O)(=O)c1ccccc1F)c1cc(F)cc(-c2ccccn2)c1 [WM-1119]
- viability at 1 µM: 107% (non-toxic)
- viability at 10 µM: 75.2% (non-toxic)
